{"source": "paper PMC10223164", "about": "“Exploration of the Transglycosylation Activity of Barley Limit Dextrinase for Production of Novel Glycoconjugates” (Molecules, 2023)", "molecular_target": "T1, HvLD (barley limit dextrinase) (Hordeum vulgare, UniProt Q9FYY0)", "T1 sequence (Q9FYY0 1-905 limits assumed)": "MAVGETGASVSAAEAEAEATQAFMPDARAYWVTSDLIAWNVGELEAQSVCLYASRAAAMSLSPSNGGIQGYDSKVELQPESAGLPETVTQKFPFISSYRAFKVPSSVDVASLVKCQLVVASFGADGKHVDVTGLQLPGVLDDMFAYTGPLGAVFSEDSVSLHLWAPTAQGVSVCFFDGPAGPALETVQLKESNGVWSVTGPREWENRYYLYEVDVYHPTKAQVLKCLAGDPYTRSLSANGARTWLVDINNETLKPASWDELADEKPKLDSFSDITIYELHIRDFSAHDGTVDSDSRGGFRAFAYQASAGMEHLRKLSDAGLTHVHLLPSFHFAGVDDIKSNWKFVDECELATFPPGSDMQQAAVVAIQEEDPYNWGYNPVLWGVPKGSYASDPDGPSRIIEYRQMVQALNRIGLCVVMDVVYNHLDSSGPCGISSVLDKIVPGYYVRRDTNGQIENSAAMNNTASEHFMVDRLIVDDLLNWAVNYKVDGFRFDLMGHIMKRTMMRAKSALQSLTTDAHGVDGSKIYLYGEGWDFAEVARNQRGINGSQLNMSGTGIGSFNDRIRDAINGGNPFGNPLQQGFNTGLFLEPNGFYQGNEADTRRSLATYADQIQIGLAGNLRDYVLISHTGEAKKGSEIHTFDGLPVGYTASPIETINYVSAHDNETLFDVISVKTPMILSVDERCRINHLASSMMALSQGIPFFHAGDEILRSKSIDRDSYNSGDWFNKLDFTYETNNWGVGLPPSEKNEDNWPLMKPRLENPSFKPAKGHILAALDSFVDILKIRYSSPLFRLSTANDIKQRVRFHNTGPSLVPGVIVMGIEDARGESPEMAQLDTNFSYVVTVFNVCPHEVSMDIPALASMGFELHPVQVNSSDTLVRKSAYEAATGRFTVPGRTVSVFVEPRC", "assay": "LC-ESI-MS with UV quantification of transglycosylation products", "type": "biochemical", "settings": "glycosyl donor, 10 mg/mL; acceptors pNP-sugars 8-14 mM; 20 mM sodium acetate pH 5.5; 5 mM CaCl2; 37 °C, 2 h", "data": [{"smiles": "OC[C@H]1O[C@H](OC[C@H]2O[C@H](O[C@H]3[C@H](O)[C@@H](O)[C@@H](O[C@H]4[C@H](O)[C@@H](O)[C@@H](OC[C@H]5O[C@H](O[C@H]6[C@H](O)[C@@H](O)[C@@H](O[C@H]7[C@H](O)[C@@H](O)C(O)O[C@@H]7CO)O[C@@H]6CO)[C@H](O)[C@@H](O)[C@@H]5O)O[C@@H]4CO)O[C@@H]3CO)[C@H](O)[C@@H](O)[C@@H]2O)[C@H](O)[C@@H](O)[C@@H]1O", "note": "(stereo partly drawn) [G1G3G3, 6^3-α-(6^3-α-D-glucosyl-maltotriosyl)-maltotriose]", "values": [{"measurement": "LC-ESI-MS with UV quantification of transglycosylation products", "value": "G1G3G3 could serve as donor in HvLD TG reactions with all five pNP-sugars"}]}]}
